We go through 2 molecules from US11952593B2, “Detection and treatment of daughter number variations in cancer cells” (PharmacoGenetics Limited, priority 2020, dated 2024).

Assay [1] has as its system A549 lung adenocarcinoma cells. Nature of the assay: Time-lapse microscopy count of multi-daughter divisions (DNV frequency), A549. Format: cell-based, human. The settings on record: wogonin 50 μM, 5-FU 20 μM. Here is the method:
To investigate DNVs, the human HepG2 hepatocellular carcinoma, HeLa cervical adenocarcinoma, and A549 lung adenocarcinoma cell lines, as well as the non-cancerous RPE1 line of hTRET-immortalized retina epithelial cells, were obtained from the American Type Culture Collection (ATCC, Manassas, Va., USA) and cultivated in Dulbecco's Modified Eagle Medium (DMEM) supplemented with 10% fetal bovine serum (Gemini Bio-Products, Sacramento. Calif.) under a humidified atmosphere of 5% C02 at 37° C. After 24 hours, the old medium was replaced by acidic DMEM growth medium buffered by 15 mM 2-(N-morpholino)-ethanesulfonic acid.HCl (MES) at pH 6.4, neutral DMEM growth medium buffered by 15 mM 3-(N-morpholino)propanesulfonic acid.HCl (MOPS) at pH 7.4, alkaline growth medium buffered by 15 mM tris(hydroxymethyl)aminomethane.HCl (Tris) at pH 8.4, or neutral DMEM growth medium containing wogonin (50 μM) or 5-FU (20 μM). Using phase contrast microscopy, time-lapse photographs were recorded at different positions of the wells at 15-minute intervals for 24 hours using the Nikon ECLIPSE Ti Live Cell Imaging Observatory, enabling the count of P1 through P8 patterns at the end of Stage 2 of the DNV process (FIG. 1). All the images were photographed at 100× magnification. Altemately, using fluorescence microscopy, the cells were seeded into 12 well plates at 1×10^3 per well and stained with Hoechst 33342 ([…], Thermofisher) for 30 minutes in an incubator at 37° C. After 30 minutes, culture medium was replaced by various treatment media and placed under the Nikon ECLIPSE Ti Live Cell Imaging Observatory for 24 hours. For the HeLa, HepG2 and A549 cells, the various treatments were also extended to 5 days. Because the RPE1 cells yielded no DNVs after 24 hours of drug treatment, its treatment periods were not extended beyond 24 hours. All the cells were manually traced and quantified using the ImageJ software. DNV frequencies were estimated by dividing the total number of multi-daughter ([…]) divisions by the total number of cell divisions. Fluorescence staining and time-lapse microscopy were employed to differentiate between the bi-, tri-, tetra- and penta-daughter cell divisions, and to estimate the percentages of the P1 through P8 patterns in the final daughter cells generated by each of the DNV events. GraphPad Prism 5.0 software was employed for statistical analysis, and the results were presented as the mean. Significance was determined using the Student t-test (two-tailed, unpaired/unequal variances).

The subject of assay [2] is A549 cells. The assay can be described thus: Cell cytotoxicity assay (crystal violet), A549. Format: cell-based, human. The settings on record: A549, 24 hours, 50 μM wogonin, 20 μM 5-FU, absorbance 600 nm. How it is done:
Cell cytotoxicity assay was carried out on 96 well plate, where cells were treated with neutral, acidic, alkaline pH and anti-cancer drug wogonin or 5-FU. After 24 hours, crystal violet (8% in methanol), and dye absorbed by live cells was extracted with sodium citrate (0.1 M) in 50% ethanol. Absorbance was read at 600 nm.
HepG2, HeLa and A549 cells were grown to a monolayer density of 1×10^3 per well in neutral growth medium overnight. There upon the cells were changed to various treatment media at neutral, acidic and alkaline pHs, neutral medium containing 50 μM wogonin and neutral medium containing 20 μM 5-FU, for 24 hours at 37° C. in humidified 5% CO2 atmosphere. Following the treatment, floating cells were removed, and the attached cells were stained with crystal violet (8% in methanol); the dye absorbed by the live cells was extracted with sodium citrate (0.1 M) in 50% ethanol [1 25], and quantitated by absorbance at 600 nm.

For the molecule `O=c1[nH]cc(F)c(=O)[nH]1` [5-FU, 5-flurouracil], in assay [1] (A549, 24 hours), the “Bi-daughter divisions, % of total divisions” value (“Bi-daughter divisions, %” for short) is reported as 99.9%; the “Bi-daughter divisions, number” value turned out to be 2205; the “Sum of Multi-daughter Divisions, % of total mitotic divisions” value (shortened to “Sum … % of total mitotic divisions”) is listed as 0.13%; the “Sum of Multi-daughter Divisions, number” value was found to be 3. Moreover, in assay [1] (A549, 24 hours), the “Total number of observed divisions” value is 2208 (100); the “Tri-daughter divisions, % of total divisions” value (from here on “Tri-daughter divisions, %”) worked out at 0.13%; the “Tri-daughter divisions, number” value was 3. Also, in assay [1] (A549, 5 days), the “Bi-daughter divisions, %” value was found to be 97%; the “Bi-daughter divisions, number” value is listed as 259; the “Sum … % of total mitotic divisions” value is on record as 3.0%; the “Sum of Multi-daughter Divisions, number” value was 8. In assay [1] (A549, 5 days), the “Tetra-daughter divisions, number” value worked out at 0; the “Total Divisions” value was 267 (100); the “Tri-daughter divisions, %” value stood at 3%; the “Tri-daughter divisions, number” value came to 8. The “≥Tetra-daughter divisions, number” value in assay [1] (A549, 5 days) is 0. The “Cell death as compared to neutral pH” value in assay [2] is listed as “increased cell death”.
With `COc1c(O)cc(O)c2c(=O)cc(-c3ccccc3)oc12` [Wogonin, wogonin], in assay [1] (A549, 24 hours), the “Bi-daughter divisions, %” value was found to be 99.6%; the “Bi-daughter divisions, number” value was found to be 1986; the “Sum … % of total mitotic divisions” value is 0.3%; the “Sum of Multi-daughter Divisions, number” value is given as 6. In assay [1] (A549, 24 hours), the “Total number of observed divisions” value was 1992 (100); the “Tri-daughter divisions, %” value was found to be 0.30%; the “Tri-daughter divisions, number” value came to 6. Besides, the “Sum … % of total mitotic divisions” value in assay [1] (A549, 24 hours, listed as wogonin) was 0.30%. In assay [1] (A549, 5 days), the “Bi-daughter divisions, %” value is listed as 94.6%; the “Bi-daughter divisions, number” value turned out to be 230; the “Sum … % of total mitotic divisions” value stood at 5.3%; the “Sum of Multi-daughter Divisions, number” value came to 13. Also, in assay [1] (A549, 5 days), the “Tetra-daughter divisions, % of total divisions” value came to 2.4%; the “Tetra-daughter divisions, number” value was found to be 6; the “Total Divisions” value is listed as 243 (100); the “Tri-daughter divisions, %” value was 2.8%. Also, in assay [1] (A549, 5 days), the “Tri-daughter divisions, number” value stood at 7 and the “≥Tetra-daughter divisions, number” value was 0. Further, the “Cell death as compared to neutral pH” value in assay [2] was “increased cell death”.
